“Also recorded” adds a separate entry of the source.
Assays:
epidermal ODC = test: TPA-induced epidermal ODC enzyme activity (14CO2 release); type: in vivo, mouse; settings: for inhibition of TPA-caused induction of epidermal ODC activity: p<0.005
Protocol: FIG. 3. Inhibitory effect of Lupeol on TPA-induced epidermal ODC activity: ODC enzyme activity was determined using 0.4 ml epidermal supernatant by measuring the release of ^14CO2 from the D, L-[^14C]ornithine. Data is represented as mean±SE of four individual values (* represents p<0.005). The epidermis from two animals was pooled for each determination.
The animals were shaved on the dorsal side of the skin, divided into four groups and treated topically on the shaved area with either 0.4 ml vehicle (acetone), or TPA (3.2 nmol/0.4 ml acetone/animal, v/v), or Lupeol (1 or 2 mg/0.2 ml acetone/animal, w/v) followed 30 min later with TPA (3.2 nmol/0.2 ml acetone/animal). Animals were sacrificed at different times point i.e. 6, 12, 24 and 48 h post TPA treatment. The epidermis was separated from the whole skin and homogenized in 0.1 M Tris-HCl buffer (pH 7.2) using a Polytron tissue homogenizer (Brinkmann Instruments, Westbury, N.Y., USA) at 100,000×g supernatant, and microsomal fractions were prepared as described earlier (Katiyar and Mukhtar, 1997). The sample of 6 h treatment group was used to assess the ODC activity as this time point has previously been shown for optimal induction of the enzyme (Katiyar er al., 1996).
ODC enzyme activity was determined using 0.4 ml epidermal supernatant by measuring the release of ^14CO2 from the D, L-[^14C] ornithine as reported earlier. (Gupta et al., 1999). The epidermis from the skin was homogenized at 4° C. in a glass-to-glass homogenizer in 10 volumes of ODC buffer [50 mM Tris-HCl buffer (pH 7.5) containing 0.1 mM EDTA, 0.1 mM dithiothreitol, 0.1 mM pyridoxal-5-phosphate, 1 mM 2-mercaptoethanol and 0.1% Tween-80]. The homogenate was centrifuged at 100,000×g at 4° C. and the supernatant was used for enzyme determination. […] The radioactivity was measured in a Beckman LS 6000 SC liquid scintillation counter. Enzyme activity was expressed as pmol CO2 released/h/mg protein.

human PSA = test: Serum PSA in athymic nude mice implanted with CWR22Rv1 cells; type: in vivo, mouse; settings: Lupeol 1 mg/animal i.p. three times a week, vs control mice
Description: FIG. 19 depicts effect of Lupeol on human PSA levels in serum of athymic nude mice implanted with CWR22Rv1 cells. Data is represented as mean±SD. * indicates p<0.05.
CW22Rv1 cells once implanted in a xenograft mouse model releases Prostate specific antigen (PSA) in host system and grows rapidly than LNCaP cells. PSA is a well known diagnostic biomarker of prostate cancer.

LNCaP cells = test: Apoptosis in LNCaP cells by flow cytometry; type: cell-based, human; settings: Lupeol 5-30 μM
Protocol: FIG. 11 depicts quantitative representation of Lupeol induced apoptosis in LNCaP cells as assessed by flow cytometry. Cells were treated with Lupeol (5-30 μM). Cells showing fluorescence above that of control population, as indicated by the line in each histogram, are considered as apoptotic cells. The images shown here are representative of independent experiments with similar results. The values shown inside each graph indicates percent apoptotic cells.

C=C(C)[C@@H]1CC[C@]2(C)CC[C@]3(C)[C@H](CC[C@@H]4[C@@]5(C)CC[C@H](O)C(C)(C)[C@@H]5CC[C@]43C)[C@@H]12 [Lupeol, Lup-20(29)-en-3β-ol]
inhibition of TPA-caused induction of epidermal ODC activity (epidermal ODC; Lupeol 1 mg/animal topical 30 min prior to TPA): 50%
inhibition of TPA-caused induction of epidermal ODC activity (epidermal ODC; Lupeol 2 mg/animal topical 30 min prior to TPA): 75%
basal epidermal ODC activity (epidermal ODC; Lupeol alone (2 mg/animal)): without any effect
serum PSA levels (human PSA): lower serum PSA levels
induction of apoptosis in LNCaP cells (LNCaP cells): due to apoptosis; also recorded: inducing apoptosis

From patent publication US8618082B2, “Lupeol anti-tumor agent and uses thereof” (Wisconsin Alumni Research Foundation, priority 2004, dated 2013)
